Source: article PMC12481569, “Novltex: A New Class of Antibiotics with Potent Activity against Multidrug-Resistant Bacterial Pathogens–Design, Synthesis, and Biological Evaluation” (Journal of Medicinal Chemistry, 2025)
Positions of bridges follow the written chain, without caps; N, C: chain ends. Non-standard residues stand in square brackets, D forms with d. Residues, ends and D or L forms follow the SMILES beside them. dCha = N[C@H](CC1CCCCC1)C(=O)O

Legend:
HepG2 = experiment: Cytotoxicity, MTS-based assay; format: cell-based, human; conditions: up to 50 μg/mL, 24 or 48 h, three independent experiments in triplicate
Description: (§1) 4 Cytotoxicity evaluation of analogue 12. Human primary dermal fibroblasts (A), liver cell line HepG2 (B), and kidney cell line HEK293T (C) cells (5 × 10^3 cells/well in 96-well plates) were treated with increasing concentrations of analogue 12 or 1 μM staurosporine (STS, used as a positive toxicity control) for 24 or 48 h, as indicated. Viability of cells was determined using an MTS-based assay. Results (% cell viability) are the mean ± SD of three independent experiments performed in triplicate. (D) Freshly collected human red blood cells (RBCs) were exposed to increasing concentrations of 12 or Triton X-100 (TX), as indicated, for 1 h. Hemolytic activity (% hemolysis) was determined by spectrophotometrically measuring the release of hemoglobin compared to that with TX (used as a positive control). Results are the mean ± SD of 4 independent experiments performed in duplicate using blood samples from four different anonymous healthy donors. […]
(§2) Bacterial cultures were grown overnight on Mueller-Hinton Agar (MHA) plates and adjusted to a final inoculum of 10^5 – 10^6 CFU/mL. […] MIC values were determined in the media contain ing polysorbate 80 (0.002%, v/v) to prevent non -specific adsorption of the peptides to plastic surfaces. […] All the experiments were performed in two independent duplicates and the MIC was determined as the lowest concentration in which no visible growth was observed. […]

HEK293T = experiment: Cytotoxicity, MTS-based assay; format: cell-based, human; conditions: up to 50 μg/mL, 24 or 48 h, three independent experiments in triplicate
Description: as §1, §2

MRSA ATCC 33591 = experiment: Resistance study on agar; format: cell-based, Staphylococcus aureus; conditions: 10× MIC on agar, 24 h, 37 °C
Description: MICs were performed as previously reported 4. For MIC testing all peptides were dissolved in DMSO.
Bacterial cultures were grown overnight on Mueller-Hinton Agar (MHA) plates and adjusted to a final inoculum of 10^5 – 10^6 CFU/mL. 100 µl of ino culum in Meuller -Hinton broth (MHB) was mixed with equal volume of peptides (dissolved in MHB) at 2x their concentration in a 96 well plate . […]
MIC values were determined in the media contain ing polysorbate 80 (0.002%, v/v) to prevent non -specific adsorption of the peptides to plastic surfaces. The final peptides concentrations ranged from 0.0625 – 32 µg/mL. The 96 well plates were then incubated at 37 °C for 24 h. All the experiments were performed in two independent duplicates and the MIC was determined as the lowest concentration in which no visible growth was observed. […]
VIII. Time dependent killing of bacteria and resistance studies by analogue 12 […]
Resistance evaluations were conducted following previously described protocols 5. […]

CC(C)C[C@@H]1NC(=O)[C@H](C)NC(=O)[C@H](NC(=O)[C@H](CO)NC(=O)[C@@H](CCCCN)NC(=O)[C@@H](CC2CCCCC2)NC(=O)[C@@H](N)Cc2ccccc2)[C@H](C)OC(=O)[C@H](CC(C)C)NC1=O [analogue 12, Leu2Cha–Novltex] (H-F[dCha][dK]S[dT]ALL; ester 5-C)
cytotoxicity (cell viability), HepG2 (HepG2): no major cytotoxicity | cytotoxicity (cell viability), HEK293T (HEK293T): no major cytotoxicity | emergence of resistant mutants (MRSA ATCC 33591): No resistant MRSA ATCC 33591 mutants emerged
